We go through 19 compounds from EP3478687B1 (Daewoong Pharmaceutical Co., Ltd., priority 2016, dated 2018).

pIC50: −log10 of the molar value.

The target in test [1] is T1, Recombinant purified human JAK3 (Homo sapiens, UniProt P52333).
T1 construct: purchased Promega V9441
T1 sequence (P52333 1-1124): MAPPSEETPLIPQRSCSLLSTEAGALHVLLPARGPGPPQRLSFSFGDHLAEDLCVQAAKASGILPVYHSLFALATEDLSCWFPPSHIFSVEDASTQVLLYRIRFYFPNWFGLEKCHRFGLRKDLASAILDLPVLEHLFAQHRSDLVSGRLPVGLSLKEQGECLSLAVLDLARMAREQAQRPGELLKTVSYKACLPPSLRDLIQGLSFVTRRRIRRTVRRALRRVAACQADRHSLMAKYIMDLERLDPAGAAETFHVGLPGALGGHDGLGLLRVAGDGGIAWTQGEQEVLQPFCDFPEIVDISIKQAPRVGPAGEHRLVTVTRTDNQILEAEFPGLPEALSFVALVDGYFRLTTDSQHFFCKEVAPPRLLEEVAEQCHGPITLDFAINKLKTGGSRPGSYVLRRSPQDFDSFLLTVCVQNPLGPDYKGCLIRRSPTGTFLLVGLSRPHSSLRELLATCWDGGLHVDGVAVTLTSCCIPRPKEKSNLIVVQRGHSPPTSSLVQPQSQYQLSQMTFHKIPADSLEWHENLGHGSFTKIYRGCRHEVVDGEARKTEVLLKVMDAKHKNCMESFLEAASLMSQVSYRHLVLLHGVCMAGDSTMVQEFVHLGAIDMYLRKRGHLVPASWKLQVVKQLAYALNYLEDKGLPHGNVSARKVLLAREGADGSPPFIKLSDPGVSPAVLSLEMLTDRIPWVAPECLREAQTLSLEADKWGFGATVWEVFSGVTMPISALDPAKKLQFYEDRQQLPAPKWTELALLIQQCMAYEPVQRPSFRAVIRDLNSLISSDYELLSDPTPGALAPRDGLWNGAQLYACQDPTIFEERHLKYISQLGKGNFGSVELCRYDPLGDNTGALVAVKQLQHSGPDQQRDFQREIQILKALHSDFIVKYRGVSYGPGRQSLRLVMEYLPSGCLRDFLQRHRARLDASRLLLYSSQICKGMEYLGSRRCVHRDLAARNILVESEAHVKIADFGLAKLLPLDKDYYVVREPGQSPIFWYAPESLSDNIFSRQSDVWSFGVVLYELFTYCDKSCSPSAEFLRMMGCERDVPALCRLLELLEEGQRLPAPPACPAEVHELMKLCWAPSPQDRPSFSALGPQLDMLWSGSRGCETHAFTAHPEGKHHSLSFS
Briefly: JAK3 kinase inhibitory activity, ADP-Glo kinase assay (Promega V9441). Format: biochemical. Particulars: ATP 5 uM, 4 ng JAK3 per reaction, 1 hour 30 °C, chemiluminescence. In short, it runs like this: (§1)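 Recombinant human kinases in Tris pH 7.5 buffer with MgCl2, BSA and DTT (MnCl2 added for BTK), 4 ng JAK3 or 8 ng BTK per reaction. Poly(Glu4,Tyr1) 0.2 µg/µL with 5 µM (JAK3) or 10 µM (BTK) ATP, 1% DMSO, 1 h at 30 °C. ADP-Glo luminescence used to derive IC50.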

Test [2] has as its target T2, Recombinant purified human BTK (Homo sapiens, UniProt Q06187).
T2 construct: purchased Promega V9071
Briefly: BTK kinase inhibitory activity, ADP-Glo kinase assay (Promega V9071). The test is classed as biochemical. Particulars: ATP 10 uM, 8 ng BTK per reaction, 1 hour 30 °C, chemiluminescence. In short, it runs like this: as §1

As usually defined, the pIC50 is −log10 of the IC50, conventionally taken in molar units.

T2 sequence (Q06187 whole entry): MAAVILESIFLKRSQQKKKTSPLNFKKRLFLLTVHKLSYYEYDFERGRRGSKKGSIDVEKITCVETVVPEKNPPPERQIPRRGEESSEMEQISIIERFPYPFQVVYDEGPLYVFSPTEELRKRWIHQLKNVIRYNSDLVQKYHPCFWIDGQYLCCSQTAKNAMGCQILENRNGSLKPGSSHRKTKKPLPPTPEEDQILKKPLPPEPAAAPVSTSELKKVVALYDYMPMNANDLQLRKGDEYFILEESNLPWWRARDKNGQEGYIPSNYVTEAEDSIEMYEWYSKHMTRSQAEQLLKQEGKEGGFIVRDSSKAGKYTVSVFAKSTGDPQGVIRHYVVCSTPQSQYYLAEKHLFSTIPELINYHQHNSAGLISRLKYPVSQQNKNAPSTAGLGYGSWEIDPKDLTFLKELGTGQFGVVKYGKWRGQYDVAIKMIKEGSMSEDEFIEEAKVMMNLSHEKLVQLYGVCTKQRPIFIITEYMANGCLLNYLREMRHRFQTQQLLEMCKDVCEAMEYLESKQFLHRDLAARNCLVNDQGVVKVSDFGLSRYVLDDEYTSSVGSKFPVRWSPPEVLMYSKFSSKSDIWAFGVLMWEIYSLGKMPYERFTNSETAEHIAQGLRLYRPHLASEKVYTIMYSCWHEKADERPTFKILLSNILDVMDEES

On to `C=CC(=O)N1CCC[C@@H](Nc2nc(Nc3cnn(CCC)c3)nc3[nH]nc(Cl)c23)C1` [Example 51, (R)-1-(3-(3-chloro-6-(1-propyl-lH-pyrazol-4-ylamino)-1H-pyrazolo [3,4-d]pyrimidin-4-ylamino)piperidin-1-yl)prop-2-en-1-one], for which the results for the pIC50 in test [1] and in test [2] were 9.10 and 8.74, respectively.
The like results for `C=CC(=O)N1CCC[C@@H](Nc2nc(Nc3cnn(CC#N)c3)nc3[nH]nc(Cl)c23)C1` [Example 52, (R)-2-(4-(4-(1-acryloylpiperidin-3-ylamino)-3-chloro-1H-pyrazolo[3,4-d]pyrimidin-6-ylamino)-1H-pyrazol-1-yl)acetonitrile] were, in that order, 9.70 and 9.10.
The like results for `C=CC(=O)N1CCC[C@@H](Nc2nc(Nc3cnn(C(C)(C)C)c3)nc3[nH]nc(Cl)c23)C1` [Example 53, (R)-1-(3-(6-(1-tert-butyl-1H-pyrazol-4-ylamino)-3-chloro-1H-pyrazolo[3,4-d]pyrimidin-4-ylamino)piperidin-1-yl)prop-2-en-1-one] were, in that order, 9.00 and 9.05.
The like results for `C=CC(=O)N1CCC[C@@H](Nc2nc(Nc3cnn(CCN4CCOCC4)c3)nc3[nH]nc(Cl)c23)C1` [Example 54, (R)-1-(3-(3-chloro-6-(1-(2-morpholinoethyl)-1H-pyrazol-4-ylamino)-1H-pyrazolo [3,4-d]pyrimidin-4-ylamino)piperidin-1-yl)prop-2-en-1-one] were, in that order, 9.15 and 8.74.
Regarding `C=CC(=O)N1CCC[C@@H](Nc2nc(Nc3cnn(CC(C)C)c3)nc3[nH]nc(Cl)c23)C1` [Example 55, (R)-1-(3-(3-chloro-6-(1-isobutyl-1H-pyrazol-4-ylamino)-1H-pyrazolo [3,4-d]pyrimidin-4-ylamino)piperidin-1-yl)prop-2-en-1-one], the pIC50 in test [1] was 8.89; in test [2] it was 8.92.
The like results for `C=CC(=O)N1CCC[C@@H](Nc2nc(Nc3cnn(CC(F)(F)F)c3)nc3[nH]nc(Cl)c23)C1` [Example 56, (R)-1-(3-(3-chloro-6-(1-(2,2,2-trifluoroethyl)-1H-pyrazol-4-ylamino)-1H-pyrazolo[3,4-d]pyrimidin-4-ylamino)piperidin-1-yl)prop-2-en-1-one] were, in that order, 9.52 and 8.74.
The like results for `C=CC(=O)N1CCC[C@@H](Nc2nc(Nc3cnn(CCN(CC)CC)c3)nc3[nH]nc(Cl)c23)C1` [Example 57, (R)-1-(3-(3-chloro-6-(1-(2-(diethylamino)ethyl)-1H-pyrazol-4-ylamino)-1H-pyrazolo [3,4-d]pyrimidin-4-ylamino)piperidin-1-yl)prop-2-en-1-one] were, in that order, 9.40 and 8.74.
For `C=CC(=O)N1CCC[C@@H](Nc2nc(Nc3cnn(Cc4cccc(OC)c4)c3)nc3[nH]nc(Cl)c23)C1` [Example 58, (R)-1-(3-(3-chloro-6-(1-(3-methoaybenzyl)-1H-pyrazol-4-ylamino)-1H-pyrazolo[3,4-d]pyrimidin-4-ylamino)piperidin-1-yl)prop-2-en-1-one] the same measures were 9.30 and 8.74.
For `C=CC(=O)N1CCC[C@@H](Nc2nc(Nc3cnoc3)nc3[nH]nc(Cl)c23)C1` [Example 59, (R)-1-(3-(3-chloro-6-(isoxazol-4-ylamino)-1H-pyrazolo[3,4-d]pyrimidin-4-ylamino)piperidin-1-yl)prop-2-en-1-one], the pIC50 in test [1] is 8.85; in test [2], 8.74.
Consider `C=CC(=O)N1CCC[C@@H](Nc2nc(Nc3cnn(CC(=O)NC)c3)nc3[nH]cc(Cl)c23)C1` [Example 60, (R)-2-(4-((4-((1-acryloylpiperidin-3-yl)amino)-5-chloro-7H-pyrrolo[2,3-d]pyrimidin-2-yl)amino)-lH-pyrazol-1-yl)-N-methylacetamide], for which the results for the pIC50 in test [1] and in test [2] were 9.70 and 8.77, respectively.
For `C=CC(=O)N1CCC[C@@H](Nc2nc(Nc3ccc(N4CCOCC4)cc3)nc3[nH]cc(Cl)c23)C1` [Example 61, (R)-1-(3-((5-chloro-2-((4-morpholinophenyl)amino)-7H-pyrrolo[2,3-d]pyrimidin-4-yl)amino)piperidin-1-yl)prop-2-en-1-one] the same measures were 8.96 and 8.77.
For `C=CC(=O)N1CCC[C@@H](Nc2nc(Nc3cnn(C4CC4)c3)nc3[nH]cc(Cl)c23)C1` [Example 62, (R)-1-(3-((5-chloro-2-((1-cyclopropyl-1H-pyrazol-4-yl)amino)-7H-pyrrolo[2,3-d]pyrimidin-4-yl)amino)piperidin-1-yl)prop-2-en-1-one] the same measures were 9.70 and 8.77.
Regarding `C=CC(=O)N1CCC[C@@H](Nc2nc(Nc3cnn(CC(C)C)c3)nc3[nH]cc(Cl)c23)C1` [Example 63, (R)-1-(3-((5-chloro-2-((1-isobutyl-1H-pyrazol-4-yl)amino)-7H-pyrrolo[2,3-d]pyrimidin-4-yl)amino)piperidin-1-yl)prop-2-en-1-one], the pIC50 is 9.52 in test [1] and 8.77 in test [2].
The like results for `C=CC(=O)N1CCC[C@@H](Nc2nc(Nc3cnn(C(F)F)c3)nc3[nH]nc(Cl)c23)C1` [Example 64, (R)-1-(3-((3-chloro-6-((1-(difluoromethyl)-1H-pyrazol-4-yl)amino)-1H-pyrazolo[3,4-d]pyrimidin-4-yl)amino)piperidin-1-yl)prop-2-en-1-one] were, in that order, 9.15 and 8.77.
For `C=CC(=O)N1CCC[C@@H](Nc2nc(Nc3cnn(CC(C)C)c3)nc3[nH]ncc23)C1` [Example 65, (R)-1-(3-((6-((1-isobutyl-1H-pyrazol-4-yl)amino)-1H-pyrazolo[3,4-d]pyrimidin-4-yl)amino)piperidin-1-yl)prop-2-en-1-one] the same measures were 8.26 and 8.77.
For the compound `C=CC(=O)N1CCC[C@@H](Nc2nc(Nc3cnn(C(C)(C)C)c3)nc3[nH]ncc23)C1` [Example 66, (R)-1-(3-((6-((1-(tert-butyl)-1H-pyrazol-4-yl)amino)-1H-pyrazolo [3,4-d]pyrimidin-4-yl)amino)piperidin-1-yl)prop-2-en-1-one], the figures for the pIC50 in test [1] and in test [2] were 8.43 and 8.77, respectively.
`C=CC(=O)N1CCC[C@@H](Nc2nc(Nc3cnn(C4CC4)c3)nc3[nH]ncc23)C1` [Example 67, (R)-1-(3-((6-((1-cyclopropyl-1H-pyrazol-4-yl)amino)-1H-pyrazolo [3,4-d]pyrimidin-4-yl)amino)piperidin-1-yl)prop-2-en-1-one]: the pIC50 in test [1] is 8.24; in test [2], 8.77.
Take `C=CC(=O)N1CCC[C@@H](Nc2nc(Nc3ccc(C(=O)N4CCOCC4)cc3)nc3[nH]cc(Cl)c23)C1` [Example 68, (R)-1-(3-((5-chloro-2-((4-(morpholine-4-carbonyl)phenyl)amino)-7H-pyrrolo[2,3-d]pyrimidin-4-yl)amino)piperidin-1-yl)prop-2-en-1-one]: the results for the pIC50 in test [1] and in test [2] were 9.15 and 7.92, respectively.
For `C=CC(=O)N1CCC[C@@H](Nc2nc(Nc3cnn(C)c3)nc3[nH]cc(Cl)c23)C1` [Example 69, (R)-1-(3-((5-chloro-2-((1-methyl-1H-pyrazol-4-yl)amino)-7H-pyrrolo[2,3-d]pyrimidin-4-yl)amino)piperidin-1-yl)prop-2-en-1-one] the same measures were 9.52 and 8.07.
